Assays:
Assay type in all cases: in vivo, human
[1] = test system: alternative complement pathway activity; test: Complement alternative pathway (AH50) assay on clinical serum samples; settings: ASSURE trial, 26 weeks vs baseline
Description: The method can be used to determine the effect of compounds, including those in the present invention, on the activity of the classical and alternative complement system in clinical samples. […] Using the CH50 screening assay to detect the hemolysis of sheep erythrocytes sensitized by specific antibodies, the hemolytic activity of the complement system in serum samples from treated and untreated subjects was measured. Likewise, using specific conditions to activate only the alternative pathway (AH50), activity of the complement response was measured. The degree of complement activation was measured at baseline and terminally to determine if there were any changes in the function of the complement system following drug treatment (FIG. 7). Reduced function of the complement system constitutes a positive result.

C-reactive protein = test: SOMAscan protein quantitation in clinical samples, ASSURE trial; settings: 200 mg/day, week 26 vs. baseline
Description: (§1) In this example, plasma samples from human subjects treated with placebo or RVX000222 are analyzed by the SOMAscan™ assay (SomaLogic). The method can be used to determine the effect of compounds, including those in the present invention, on the abundance of proteins, including complement components, in clinical samples. […] Using the SOMAscan™ technology, each sample is analyzed for the relative presence and amount of 1,310 different proteins. The changes in values for each protein analyte are calculated versus the baseline measure, and statistically significant (p<0.05) values are reported (Table 10). Downregulation of expression of components of the complement cascade will result in reduced activity of the pathway and thus will constitute a positive result.

C5a anaphylatoxin = test: as above; settings: 200 mg/day, week 26 vs. baseline
Description: as §1

[2] = test system: Complement C1s subcomponent; test: as above; settings: 200 mg/day, week 26 vs. baseline
Description: as §1

Complement component C8 = test: as above; settings: 200 mg/day, week 26 vs. baseline
Description: as §1

Complement factor H [3] = test: as above; settings: 200 mg/day, week 26 vs. baseline
Description: as §1

Complement component C9 [4] = test: as above; settings: 200 mg/day, week 26 vs. baseline
Description: as §1

Complement component C6 = test: as above; settings: 200 mg/day, week 26 vs. baseline
Description: as §1

[5] = test system: Complement decay-accelerating factor; test: as above; settings: 200 mg/day, week 26 vs. baseline
Description: as §1

Complement C2 = test: as above; settings: 200 mg/day, week 26 vs. baseline
Description: as §1

Complement C5 [6] = test: as above; settings: 200 mg/day, week 26 vs. baseline
Description: as §1

Complement factor B [7] = test: as above; settings: 200 mg/day, week 26 vs. baseline
Description: as §1

Complement C3b = test: as above; settings: 200 mg/day, week 26 vs. baseline
Description: as §1

Complement factor I [8] = test: as above; settings: 200 mg/day, week 26 vs. baseline
Description: as §1

[9] = test system: Complement C5b-C6 complex; test: as above; settings: 200 mg/day, week 26 vs. baseline
Description: as §1

[10] = test system: Mannan-binding lectin serine protease 1; test: as above; settings: 200 mg/day, week 26 vs. baseline
Description: as §1

[11] = test system: Mannose-binding protein C; test: as above; settings: 200 mg/day, week 26 vs. baseline
Description: as §1

Complement C3 = test: Plasma protein quantitation by LC-MRM/MS, ASSURE trial; settings: week 26 vs. baseline
Description: (§2) The method can be used to determine the effect of compounds, including those in the present invention, on the levels of various analytes found in plasma.
(§3) Using mass spectrometric methods, including multiple reaction monitoring (MRM) mass spectrometry (MRM-MS), each sample is analyzed for the presence and amount of 43 different plasma proteins. The changes in values for each protein analyte are calculated versus the baseline measure, and statistically significant (p<0.05) and trending (0.10>p>0.05) values are reported (Table 9). Downregulation of expression of components of the complement cascade will result in reduced activity of the pathway and thus will constitute a positive result.

Complement C4-B = test: as above; settings: week 26 vs. baseline
Description: as §2, §3

[12] = test system: Complement component C8 beta chain; test: as above; settings: week 26 vs. baseline
Description: as §2, §3

Complement factor H [13] = test: as above; settings: week 26 vs. baseline
Description: as §2, §3

Complement component C9 [14] = test: as above; settings: week 26 vs. baseline
Description: as §2, §3

[15] = test system: Complement component C8 alpha chain; test: as above; settings: week 26 vs. baseline
Description: as §2, §3

Complement C5 [16] = test: as above; settings: week 26 vs. baseline
Description: as §2, §3

Complement factor B [17] = test: as above; settings: week 26 vs. baseline, trending p 0.06
Description: as §2, §3

Complement factor I [18] = test: as above; settings: week 26 vs. baseline
Description: as §2, §3

[19] = test system: Complement C1r subcomponent; test: as above; settings: week 26 vs. baseline
Description: as §2, §3

## COc1cc(OC)c2c(=O)[nH]c(-c3cc(C)c(OCCO)c(C)c3)nc2c1 [RVX000222, 2-(4-(2-hydroxyethoxy)-3,5-dimethylphenyl)-5,7-dimethoxyquinazolin-4(3H)-one]
[1]
  complement activity in clinical samples, AHSO assay (FIG. 7A): reduces complement activity
C-reactive protein
  C-reactive protein (CRP) % change vs. baseline: −43.6%
C5a anaphylatoxin
  C5a anaphylatoxin (C5) % change vs. baseline: −28.7%
[2]
  Complement C1s subcomponent (C1S) % change vs. baseline: −6.1%
Complement component C8
  Complement component C8 (C8) % change vs. baseline: −10.1%
Complement factor H [3]
  Complement factor H (CFH) % change vs. baseline: −5.6%
Complement component C9 [4]
  Complement component C9 (C9) % change vs. baseline: −18.3%
Complement component C6
  Complement component C6 (C6) % change vs. baseline: −14.3%
[5]
  Complement decay-accelerating factor (CD55) % change vs. baseline: −4.0%
Complement C2
  Complement C2 (C2) % change vs. baseline: −6.7%
Complement C5 [6]
  Complement C5 (C5) % change vs. baseline: −11.7%
Complement factor B [7]
  Complement factor B (CFB) % change vs. baseline: −6.8%
Complement C3b
  Complement C3b (C3) % change vs. baseline: −52.7%
Complement factor I [8]
  Complement factor I (CFI) % change vs. baseline: −6.4%
[9]
  Complement C5b-C6 complex (C5 C6) % change vs. baseline: −12.0%
[10]
  Mannan-binding lectin serine protease 1 (MASP1) % change vs. baseline: 4.8%
[11]
  Mannose-binding protein C (MBL2) % change vs. baseline: −14.6%
Complement C3
  Complement C3 Change from baseline: −34,105 ng/mL
  Complement C3 Percent Change from baseline: −3.6%
Complement C4-B
  Complement C4-B Change from baseline: −7,492 ng/mL
  Complement C4-B Percent Change from baseline: −4.3%
[12]
  Complement component C8 beta chain Change from baseline: -341 ng/mL
  Complement component C8 beta chain Percent Change from baseline: −3.9%
Complement factor H [13]
  Complement factor H Change from baseline: −8,710 ng/mL
  Complement factor H Percent Change from baseline: −4.2%
Complement component C9 [14]
  Complement component C9 Change from baseline: −5,034 ng/mL
  Complement component C9 Percent Change from baseline: −13.8%
[15]
  Complement component C8 alpha chain Change from baseline: -120 ng/mL
  Complement component C8 alpha chain Percent Change from baseline: −8.6%
Complement C5 [16]
  Complement C5 Change from baseline: −2,228 ng/mL
  Complement C5 Percent Change from baseline: −5.3%
Complement factor B [17]
  Complement factor B Change from baseline: −4,259 ng/mL
  Complement factor B Percent Change from baseline: −4.2%
Complement factor I [18]
  Complement factor I Change from baseline: −1,205 ng/mL
  Complement factor I Percent Change from baseline: −5.2%
[19]
  Complement C1r subcomponent Change from baseline: -571 ng/mL
  Complement C1r subcomponent Percent Change from baseline: −3.6%

From patent US10111885B2, “Compositions and therapeutic methods for the treatment of complement-associated diseases” (Resverlogix Corp., priority 2015, dated 2018)
